The record followed here is patent US11505536B2, “Dihydroorotate dehydrogenase inhibitors” (Janssen Biotech, Inc., priority 2019, dated 2022).

For assay [1], the system named is MOLM-13 cells (human acute myeloid leukemia cells). Nature of the assay: MOLM-13 Cellular Assay. It is filed as cell-based. To be noted: 72 hours exposure, cell viability by CellTiter-Glo. As for the experimental part: The following assay is referred to herein as the “MOLM-13 Cellular Assay.” MOLM-13 cells (human acute myeloid leukemia cells) were obtained from DSMZ and were maintained in RPMI 1640+Glutamax+25 mM HEPES (Invitrogen, catalog number 72400) supplemented with 10% heat inactivated fetal bovine serum (FBS; Invitrogen, catalog number 16140). The day prior to assay set-up, cells were pelleted, resuspended in fresh media, counted, and cells were plated at 0.4×10^6 cell/mL in a T150 flask. On the day of the assay, cells were pelleted, resuspend in fresh media, counted and seeded at 5,000 cells/well in white opaque 96-well tissue culture treated microplates (Perkin Elmer, catalog number 6005680). Cells were exposed to different concentrations of test compounds at 37° C., 5% CO2 for 72 hours immediately after seeding. Cell viability was acquired on a Perkin Elmer Envision 2104 multilabel reader using the CellTiter-Glo assay (Promega) according to the manufacturer's instructions.

Another assay deals with human DHODH (Homo sapiens (Human), UniProt Q02127). Nature of the assay: DHODH Enzymatic Assay. It is filed as biochemical. Conditions: purified human DHODH, DCIP absorbance, end-point mode; read-out: hDHODH IC50. As for the experimental part:
The following assay is referred to herein as the “DHODH Enzymatic Assay.” To detect DHODH enzyme activities, dichloroindophenol (DCIP) is added as the final electron acceptor in the assay. DCIP can accept electrons from the reduced coenzyme Q generated in the assay, or from dihydroorotate (DHO) via FMN by binding presumably to the ubiquinone pocket. DCIP solutions are blue, with an intense absorbance around 600 nm, but becomes colorless upon reduction (J. Biol. Chem. (1986) 261, 11386). The assay buffer contained […], pH 7.5, 150 mM NaCl, 0.5 mM EDTA, and 0.1% Triton X-100 in MilliQ water. Substrate consisting of 20 mM DHO, 5 mM CoQ6, and 1 mM DCIP in assay buffer, initiates the reaction. The assay is run in end-point mode by quenching the reaction with the potent DHODH inhibitor brequinar. Absorbance measurements were obtained using the BMG Phera Star plate-reading spectrophotomer. Purified human DHODH was purchased from Proteros (cat. No. PR-0044). Chemicals were purchased from Sigma-Aldrich, Teknova, and Avanti Polar Lipids. Liquid handling was performed using Labcyte Echo and Formulatrix Tempest.

By IC50 is commonly meant the concentration needed to halve the response being measured.

human DHODH, sequence (Q02127 whole entry): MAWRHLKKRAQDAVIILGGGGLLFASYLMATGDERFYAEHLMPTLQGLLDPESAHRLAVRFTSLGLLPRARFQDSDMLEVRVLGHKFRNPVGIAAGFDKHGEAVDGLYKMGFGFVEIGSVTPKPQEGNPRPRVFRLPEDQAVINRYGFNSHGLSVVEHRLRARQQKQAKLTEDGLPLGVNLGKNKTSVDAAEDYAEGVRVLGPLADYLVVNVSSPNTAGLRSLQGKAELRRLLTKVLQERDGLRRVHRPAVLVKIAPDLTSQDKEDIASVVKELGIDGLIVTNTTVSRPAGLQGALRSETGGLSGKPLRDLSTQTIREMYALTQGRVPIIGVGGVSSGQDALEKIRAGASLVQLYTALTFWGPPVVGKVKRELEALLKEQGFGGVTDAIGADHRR

In the case of `CCC(C)c1cn(-c2c(F)cccc2Cl)c(=O)c2cc(F)c(-n3nc(CO)n(CC)c3=O)cc12` (racemic) [Example 48, Racemic-4-(sec-Butyl)-2-(2-chloro-6-fluorophenyl)-6-(4-ethyl-3-(hydroxymethyl)-5-oxo-4,5-dihydro-1H-1,2,4-triazol-1-yl)-7-fluoroisoquinolin-1(2H)-one], the half-inhibitory concentration (IC50) in assay [1] (Homo sapiens, MOLM-13, 72 h) was 0.6 nM; at human DHODH, 0.907 nM. As for `C=C(C)c1cn(-c2ccccc2C)c(=O)c2cc(C)c(-n3nc(CO)n(CC)c3=O)cc12` [Example 79, 6-(4-Ethyl-3-(hydroxymethyl)-5-oxo-4,5-dihydro-1H-1,2,4-triazol-1-yl)-7-methyl-4-(prop-1-en-2-yl)-2-(o-tolyl)isoquinolin-1(2H)-one], the 50% inhibitory concentration (IC50) was 10 nM in assay [1] (Homo sapiens, MOLM-13, 72 h) and 17.1 nM at human DHODH. For `CCn1c(CO)nn(-c2nc3c(C)nn(-c4ccccc4C)c(=O)c3cc2F)c1=O` [Example 33, 2-(4-Ethyl-3-(hydroxymethyl)-5-oxo-4,5-dihydro-1H-1,2,4-triazol-1-yl)-3-fluoro-8-methyl-6-(o-tolyl)pyrido[2,3-d]pyridazin-5(6H)-one], in that order: above 100 nM and 240 nM.

As for `C=C(C)c1cn(-c2ccccc2OC)c(=O)c2cc(F)c(-n3nc(CO)n(CC)c3=O)cc12` [Example 83, 6-(4-Ethyl-3-(hydroxymethyl)-5-oxo-4,5-dihydro-1H-1,2,4-triazol-1-yl)-7-fluoro-2-(2-methoxyphenyl)-4-(prop-1-en-2-yl)isoquinolin-1(2H)-one], the IC50 in assay [1] is 0.2 nM; in assay [1] (Homo sapiens, MOLM-13, 72 h), at most 0.2 nM; at human DHODH it was 0.444 nM. For `C=C(C)c1cn(-c2c(F)cccc2Cl)c(=O)c2cc(F)c(-n3nc(CO)n(CC)c3=O)cc12` [Example 52, 2-(2-Chloro-6-fluorophenyl)-6-(4-ethyl-3-(hydroxymethyl)-5-oxo-4,5-dihydro-1H-1,2,4-triazol-1-yl)-7-fluoro-4-(prop-1-en-2-yl)isoquinolin-1(2H)-one], in that order: 0.1 nM, at most 0.2 nM and 0.265 nM. As to `C=C(C)c1cn(-c2cc(F)ccc2C)c(=O)c2cc(F)c(-n3nc(CO)n(CC)c3=O)cc12` [Example 82, 6-(4-Ethyl-3-(hydroxymethyl)-5-oxo-4,5-dihydro-1H-1,2,4-triazol-1-yl)-7-fluoro-2-(5-fluoro-2-methylphenyl)-4-(prop-1-en-2-yl)isoquinolin-1(2H)-one], the IC50 on human DHODH was found to be 0.249 nM. Turning to `CCn1c(CO)nn(-c2cc3c(C(C)C)cn(-c4nc(C)ccc4Cl)c(=O)c3cc2F)c1=O` [Example 108, 2-(3-Chloro-6-methylpyridin-2-yl)-6-(4-ethyl-3-(hydroxymethyl)-5-oxo-4,5-dihydro-1H-1,2,4-triazol-1-yl)-7-fluoro-4-isopropylisoquinolin-1(2H)-one], the IC50 was 6 nM in assay [1] (Homo sapiens, MOLM-13, 72 h) and 3.07 nM on human DHODH. For `CCn1c(CO)nn(-c2nc3c(C(C)C)cn(-c4cc(C)ccc4F)c(=O)c3cc2F)c1=O` [Example 99, 2-(4-Ethyl-3-(hydroxymethyl)-5-oxo-4,5-dihydro-1H-1,2,4-triazol-1-yl)-3-fluoro-6-(2-fluoro-5-methylphenyl)-8-isopropyl-1,6-naphthyridin-5(6H)-one], in that order: 7 nM and 6.1 nM. Take `CCn1c(CO)nn(-c2cc3c(C(C)C)cn(-c4ccc(F)cc4C)c(=O)c3cc2F)c1=O` [Example 64, 6-(4-Ethyl-3-(hydroxymethyl)-5-oxo-4,5-dihydro-1H-1,2,4-triazol-1-yl)-7-fluoro-2-(4-fluoro-2-methylphenyl)-4-isopropylisoquinolin-1(2H)-one]: the half-maximal inhibitory concentration (IC50) in assay [1] (Homo sapiens, MOLM-13, 72 h) is 0.5 nM; at human DHODH, 0.459 nM. For `CCn1c(CO)nn(-c2ccc3c(=O)n(-c4c(F)cccc4Cl)cc(C4(C)CC4)c3c2)c1=O` [Example 24, 2-(2-Chloro-6-fluorophenyl)-6-(4-ethyl-3-(hydroxymethyl)-5-oxo-4,5-dihydro-1H-1,2,4-triazol-1-yl)-4-(1-methylcyclopropyl)isoquinolin-1(2H)-one], the concentration for half-maximal inhibition (IC50) in assay [1] (Homo sapiens, MOLM-13, 72 h) stood at 1 nM; on human DHODH it was 1.65 nM. `CCn1c(CO)nn(-c2cc3c(C(C)C)cn([C@H]4CCC[C@H]4C)c(=O)c3cc2F)c1=O` (stereo in doubt) [Example 126, 6-(4-Ethyl-3-(hydroxymethyl)-5-oxo-4,5-dihydro-1H-1,2,4-triazol-1-yl)-7-fluoro-4-isopropyl-2-((1S*,2R*)-2-methylcyclopentyl)isoquinolin-1(2H)-one]: the IC50 in assay [1] (Homo sapiens, MOLM-13, 72 h) worked out at 1 nM; on human DHODH, 1.32 nM.

Regarding `C=C(C)c1cn(-c2c(F)cccc2Cl)c(=O)c2cc(F)c(-n3nc(CO)n(CC)c3=O)nc12` [Example 35, 6-(2-Chloro-6-fluorophenyl)-2-(4-ethyl-3-(hydroxymethyl)-5-oxo-4,5-dihydro-1H-1,2,4-triazol-1-yl)-3-fluoro-8-(prop-1-en-2-yl)-1,6-naphthyridin-5(6H)-one], the IC50 was 1 nM in assay [1] (Homo sapiens, MOLM-13, 72 h) and 1.15 nM at human DHODH. For `CCn1c(CO)nn(-c2cc3c(C(C)C)cn(-c4nc(OC)ccc4Cl)c(=O)c3cc2F)c1=O` [Example 49, 2-(3-Chloro-6-methoxypyridin-2-yl)-6-(4-ethyl-3-(hydroxymethyl)-5-oxo-4,5-dihydro-1H-1,2,4-triazol-1-yl)-7-fluoro-4-isopropylisoquinolin-1(2H)-one] the same measures were 2 nM and 1.09 nM. As for `C=C(C)c1nn(-c2c(F)cccc2Cl)c(=O)c2cc(-n3nc(CO)n(CC)c3=O)c(OC)cc12` [Example 30, 2-(2-Chloro-6-fluorophenyl)-7-(4-ethyl-3-(hydroxymethyl)-5-oxo-4,5-dihydro-1H-1,2,4-triazol-1-yl)-6-methoxy-4-(prop-1-en-2-yl)phthalazin-1(2H)-one], the IC50 at human DHODH is 3480 nM. In assay [1] (Homo sapiens, MOLM-13, 72 h), `CCn1c(CO)nn(-c2cc3c(C(C)C)cn(-c4ccccc4Cl)c(=O)c3cc2F)c1=O` [Example 117, 2-(2-Chlorophenyl)-6-(4-ethyl-3-(hydroxymethyl)-5-oxo-4,5-dihydro-1H-1,2,4-triazol-1-yl)-7-fluoro-4-isopropylisoquinolin-1(2H)-one] gave an IC50 of 0.3 nM.

Regarding `C=C(C)c1nn(-c2c(F)cccc2Cl)c(=O)c2cc(F)c(-n3nc(CO)n(CC)c3=O)cc12` [Example 27, 2-(2-Chloro-6-fluorophenyl)-6-(4-ethyl-3-(hydroxymethyl)-5-oxo-4,5-dihydro-1H-1,2,4-triazol-1-yl)-7-fluoro-4-(prop-1-en-2-yl)phthalazin-1(2H)-one], the IC50 at human DHODH is 0.32 nM. Compound `CCn1c(CO)nn(-c2nc3c(C(C)C)cn(-c4ccccc4C(F)(F)F)c(=O)c3cc2F)c1=O` [Example 133, 2-(4-Ethyl-3-(hydroxymethyl)-5-oxo-4,5-dihydro-1H-1,2,4-triazol-1-yl)-3-fluoro-8-isopropyl-6-(2-(trifluoromethyl)phenyl)-1,6-naphthyridin-5(6H)-one] came in with an IC50 in assay [1] (Homo sapiens, MOLM-13, 72 h) of 2 nM. Regarding `CCn1c(CO)nn(-c2cc3c(C(C)C)cn(-c4cccnc4OC)c(=O)c3cc2F)c1=O` [Example 90, 6-(4-Ethyl-3-(hydroxymethyl)-5-oxo-4,5-dihydro-1H-1,2,4-triazol-1-yl)-7-fluoro-4-isopropyl-2-(2-methoxypyridin-3-yl)isoquinolin-1(2H)-one], the IC50 at human DHODH is 20.7 nM. Same read-out and setting: with `C=C(C)c1nn(-c2c(F)cccc2Cl)c(=O)c2cc(OC)c(-n3nc(CO)n(CC)c3=O)cc12` [Example 29, 2-(2-Chloro-6-fluorophenyl)-6-(4-ethyl-3-(hydroxymethyl)-5-oxo-4,5-dihydro-1H-1,2,4-triazol-1-yl)-7-methoxy-4-(prop-1-en-2-yl)phthalazin-1(2H)-one] the figure was 82.6 nM.

With `CCn1c(CO)nn(-c2cc3c(C(C)C)cn(-c4nc(C)ccc4C)c(=O)c3cc2F)c1=O` [Example 134, 2-(3,6-Dimethylpyridin-2-yl)-6-(4-ethyl-3-(hydroxymethyl)-5-oxo-4,5-dihydro-1H-1,2,4-triazol-1-yl)-7-fluoro-4-isopropylisoquinolin-1(2H)-one], the IC50 in assay [1] (Homo sapiens, MOLM-13, 72 h) amounted to 8 nM.

For the compound `CCn1c(CO)nn(-c2ccc3c(=O)n(-c4cccc(F)c4)cc(C(C)(C)O)c3c2)c1=O` [Example 25, 6-(4-Ethyl-3-(hydroxymethyl)-5-oxo-4,5-dihydro-1H-1,2,4-triazol-1-yl)-2-(3-fluorophenyl)-4-(2-hydroxypropan-2-yl)isoquinolin-1(2H)-one], on human DHODH, the concentration for half-maximal inhibition (IC50) worked out at 4260 nM. Regarding `C=C(C)c1nn(-c2c(F)cccc2Cl)c(=O)c2cc(-n3nc(CO)n(CC)c3=O)c(F)cc12` [Example 28, 2-(2-Chloro-6-fluorophenyl)-7-(4-ethyl-3-(hydroxymethyl)-5-oxo-4,5-dihydro-1H-1,2,4-triazol-1-yl)-6-fluoro-4-(prop-1-en-2-yl)phthalazin-1(2H)-one], the IC50 at human DHODH was 5.03 nM.
